Measured values: patent US20210253575A1, “PYRROLIDINE AMINE COMPOUNDS FOR THE TREATMENT OF AUTOIMMUNE DISEASE” (Hoffmann-La Roche Inc., priority 2018, published 2021)

target: T1, human TLR7 (Homo sapiens, UniProt Q9NYK1); experiment: HEK293-Blue-hTLR-7 cells assay (SEAP reporter, R848 stimulation); format: cell-based; details: HEK293-Blue-hTLR7 cells, R848 ligand, 20 hrs incubation
T1 sequence (Q9NYK1 27-1049): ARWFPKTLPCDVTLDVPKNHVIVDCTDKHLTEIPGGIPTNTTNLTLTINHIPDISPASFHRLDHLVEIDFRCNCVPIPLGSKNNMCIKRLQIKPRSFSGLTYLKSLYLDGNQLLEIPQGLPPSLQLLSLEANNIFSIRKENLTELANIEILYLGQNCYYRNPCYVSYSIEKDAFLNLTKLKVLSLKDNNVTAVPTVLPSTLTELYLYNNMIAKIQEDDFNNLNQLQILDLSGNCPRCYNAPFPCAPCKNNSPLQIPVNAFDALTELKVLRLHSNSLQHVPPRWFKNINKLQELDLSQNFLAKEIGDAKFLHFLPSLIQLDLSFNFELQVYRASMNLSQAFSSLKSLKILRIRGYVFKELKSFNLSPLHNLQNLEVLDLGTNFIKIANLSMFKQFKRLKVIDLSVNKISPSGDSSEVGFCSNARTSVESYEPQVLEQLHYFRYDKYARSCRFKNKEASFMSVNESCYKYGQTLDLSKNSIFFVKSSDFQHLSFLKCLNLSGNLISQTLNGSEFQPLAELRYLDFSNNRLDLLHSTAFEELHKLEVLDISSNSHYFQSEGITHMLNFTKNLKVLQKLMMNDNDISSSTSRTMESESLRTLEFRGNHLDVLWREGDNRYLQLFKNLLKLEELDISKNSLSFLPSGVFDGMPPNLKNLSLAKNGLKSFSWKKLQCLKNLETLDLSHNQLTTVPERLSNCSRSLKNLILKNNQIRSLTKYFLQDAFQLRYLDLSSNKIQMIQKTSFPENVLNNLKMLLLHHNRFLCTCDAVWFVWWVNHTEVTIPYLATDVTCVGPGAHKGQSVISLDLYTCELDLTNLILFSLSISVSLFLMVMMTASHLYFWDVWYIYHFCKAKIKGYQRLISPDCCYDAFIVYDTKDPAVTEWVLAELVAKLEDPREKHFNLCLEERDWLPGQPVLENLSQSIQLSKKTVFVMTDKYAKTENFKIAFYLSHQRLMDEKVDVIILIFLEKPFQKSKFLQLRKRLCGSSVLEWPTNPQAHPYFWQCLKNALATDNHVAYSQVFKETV
Protocol: The following tests were carried out in order to determine the activity of the compounds of formula (I) in HEK293-Blue-hTLR-7/8/9 cells assay.
HEK293-Blue-hTLR-7 Cells Assay:
A stable HEK293-Blue-hTLR-7 cell line was purchased from InvivoGen (Cat. #: hkb-htlr7, San Diego, Calif., USA). These cells were originally designed for studying the stimulation of human TLR7 by monitoring the activation of NF-κB. A SEAP (secreted embryonic alkaline phosphatase) reporter gene was placed under the control of the IFN-β minimal promoter fused to five NF-κB and AP-1-binding sites. The SEAP was induced by activating NF-κB and AP-1 via stimulating HEK-Blue hTLR7 cells with TLR7 ligands. Therefore the reporter expression was declined by TLR7 antagonist under the stimulation of a ligand, such as R848 (Resiquimod), for incubation of 20 hrs. The cell culture supernatant SEAP reporter activity was determined using QUANTI-Blue™ kit (Cat. #: rep-qb1, Invivogen, San Diego, Ca, USA) at a wavelength of 640 nm, a detection medium that turns purple or blue in the presence of alkaline phosphatase.
HEK293-Blue-hTLR7 cells were incubated at a density of 250,000-450,000 cells/mL in a volume of 170 μL in a 96-well plate in Dulbecco's Modified Eagle's medium (DMEM) containing 4.5 g/L glucose, 50 U/mL penicillin, […], […], 2 mM L-glutamine, 10% (v/v) heat-inactivated fetal bovine serum with addition of 20 μL test compound in a serial dilution in the presence of final DMSO at 1% and 10 μL of 20 uM R848 in above DMEM, perform incubation under 37° C. in a CO2 incubator for 20 hrs. Then 20 μL of the supernatant from each well was incubated with 180 μL Quanti-blue substrate solution at 37° C. for 2 hrs and the absorbance was read at 620-655 nm using a spectrophotometer. The signalling pathway that TLR7 activation leads to downstream NF-κB activation has been widely accepted, and therefore similar reporter assay was modified for evaluating TLR7 antagonist.

For `CC1(N)CCN(C[C@H]2CN(c3ccc(C#N)c4nccnc34)C[C@@H]2C(F)(F)F)CC1` [Example 12, 8-[(3S,4R)-3-[(4-amino-4-methyl-1-piperidyl)methyl]-4-(trifluoromethyl)pyrrolidin-1-yl]quinoxaline-5-carbonitrile], which IC50 is on record?
The IC50 was 15 nM.

For `FC(F)(F)c1ccc(N2CC(CN3C[C@H]4CNC[C@H]4C3)C3(CC3)C2)c2nccnc12` (stereo partly drawn) [Example 41, 5-[7-[[(3aR,6aS)-2,3,3a,4,6,6a-hexahydro-H-pyrrolo[3,4-c]pyrrol-5-yl]methyl]-5-azaspiro[2.4]heptan-5-yl]-8-(trifluoromethyl)quinoxaline], which IC50 is on record?
The IC50 was 821 nM.

How did the IC50 turn out when `CC[C@@H]1CN(c2ccc(C#N)c3ncccc23)C[C@H]1CN1CCC2(CCNCC2)CC1` (relative stereo) [Example 15, 5-[Trans-3-(3,9-diazaspiro[5.5]undecan-3-ylmethyl)-4-ethyl-pyrrolidin-1-yl]quinoline-8-carbonitrile] was run?
The IC50 was 107 nM.

With `N#Cc1ccc(N2C[C@H](CN3CCC(N4CCCCCC4)CC3)[C@@H](C(F)(F)F)C2)c2nccnc12` [Example 62, 8-[(3S,4R)-3-[[4-(Azepan-1-yl)-1-piperidyl]methyl]-4-(trifluoromethyl)pyrrolidin-1-yl]quinoxaline-5-carbonitrile] as the compound, how does the IC50 read?
The IC50 was 34 nM.

For `N#Cc1ccc(N2CC(CN3C[C@H]4CNC[C@H]4C3)C3(CC3)C2)c2nccnc12` (stereo partly drawn) [Example 18, 8-[7-[[(3aR,6aS)-2,3,3a,4,6,6a-hexahydro-H-pyrrolo[3,4-c]pyrrol-5-yl]methyl]-5-azaspiro[2.4]heptan-5-yl]quinoxaline-5-carbonitrile], which IC50 is on record?
Its IC50 is 137 nM.

How did the IC50 turn out when `N#Cc1ccc(N2C[C@H](CN3CCC4(CCCNC4)C3)[C@@H](C(F)(F)F)C2)c2cccnc12` (stereo partly drawn) [Example 6, 5-[(3S,7R)-3-(2,9-diazaspiro[4.5]decan-2-ylmethyl)-4-(trifluoromethyl)pyrrolidin-1-yl]quinoline-8-carbonitrile] was run?
The IC50 was 48 nM.

How did the IC50 turn out when `N#Cc1ccc(N2CC(CN3CCC4(CC3)CNCCO4)C3(CC3)C2)c2nccnc12` (stereo not drawn) [Example 49, 8-[7-(1-Oxa-4,9-diazaspiro[5.5]undecan-9-ylmethyl)-5-azaspiro[2.4]heptan-5-yl]quinoxaline-5-carbonitrile] was run?
Its IC50 is 153 nM.

`N#Cc1ccc(N2CC(CN3CCC(N)CC3)C3(CC3)C2)c2nccnc12` (single isomer, unassigned) [Example 68A, 8-[7-[(4-Amino-1-piperidyl)methyl]-5-azaspiro[2.4]heptan-5-yl]quinoxaline-5-carbonitrile] was tested. Which IC50 did it give?
The IC50 was 61 nM.

For `N#Cc1ccc(N2CC(CN3CCC4(CCCNC4)C3)C3(CC3)C2)c2nccnc12` (stereo not drawn) [Example 22, 8-[7-(2,9-Diazaspiro[4.5]decan-2-ylmethyl)-5-azaspiro[2.4]heptan-5-yl]quinoxaline-5-carbonitrile], which IC50 is on record?
Its IC50 is 201 nM.

`N#Cc1ccc(N2CC(CN3CCC4(CCCCN4)CC3)C3(CC3)C2)c2nccnc12` (stereo not drawn) [Example 65, 8-[7-(1,9-Diazaspiro[5.5]undecan-9-ylmethyl)-5-azaspiro[2.4]heptan-5-yl]quinoxaline-5-carbonitrile] was tested. Which IC50 did it give?
Its IC50 is 108 nM.

Which IC50 does the source give for `N#Cc1ccc(N2C[C@H](CN3C4CCC3CC(N)C4)[C@@H](C(F)(F)F)C2)c2nccnc12` (stereo partly drawn) [Example 63, 8-[(3S,4R)-3-[(3-amino-8-azabicyclo[3.2.1]octan-8-yl)methyl]-4-(trifluoromethyl)pyrrolidin-1-yl]quinoxaline-5-carbonitrile] here?
Its IC50 is 57 nM.

For `N#Cc1ccc(N2C[C@H](CN3CCC(N4CCCC4)CC3)[C@@H](C(F)(F)F)C2)c2nccnc12` [Example 60, 8-[(3S,4R)-3-[(4-Pyrrolidin-1-yl-1-piperidyl)methyl]-4-(trifluoromethyl)pyrrolidin-1-yl]quinoxaline-5-carbonitrile], which IC50 is on record?
Its IC50 is 29 nM.

For `N#Cc1ccc(N2C[C@H](CN3CCC4(CC3)CNCCO4)[C@@H](C(F)(F)F)C2)c2nccnc12` [Example 70, 8-[(3S,4R)-3-(1-oxa-4,9-diazaspiro[5.5]undecan-9-ylmethyl)-4-(trifluoromethyl)pyrrolidin-1-yl]quinoxaline-5-carbonitrile], which IC50 is on record?
The IC50 was 12 nM.

With `CNCC1CCN(C[C@H]2CN(c3ccc(C#N)c4nccnc34)C[C@@H]2C(F)(F)F)CC1` [Example 81, 8-[(3S,4R)-3-[[4-(methylaminomethyl)-1-piperidyl]methyl]-4-(trifluoromethyl)pyrrolidin-1-yl]quinoxaline-5-carbonitrile] as the compound, how does the IC50 read?
The IC50 was 32 nM.

How did the IC50 turn out when `FC(F)(F)c1ccc(N2CC(CN3CCNCC3)C3(CC3)C2)c2nccnc12` (stereo not drawn) [Example 20, 5-[7-(Piperazin-1-ylmethyl)-5-azaspiro[2.4]heptan-5-yl]-8-(trifluoromethyl)quinoxaline] was run?
The IC50 was 156 nM.

For `N#Cc1ccc(N2C[C@H](CN3CCC4(CCNCC4)CC3)[C@@H](C(F)(F)F)C2)c2nccnc12` [Example 1, 8-[(3S,4R)-3-(3,9-diazaspiro[5.5]undecan-3-ylmethyl)-4-(trifluoromethyl)pyrrolidin-1-yl]quinoxaline-5-carbonitrile], which IC50 is on record?
Its IC50 is 5 nM.

For `N#Cc1ccc(N2CC(CN3CCC4(CCNCC4)CC3)C3(CC3)C2)c2nccnc12` (stereo not drawn) [Example 16, 8-[7-(3,9-Diazaspiro[5.5]undecan-3-ylmethyl)-5-azaspiro[2.4]heptan-5-yl]quinoxaline-5-carbonitrile], which IC50 is on record?
Its IC50 is 113 nM.

With `N#Cc1ccc(N2C[C@H](CN3CC4(CCNCC4)C3)[C@@H](C(F)(F)F)C2)c2nccnc12` [Example 48, 8-[(3S,4R)-3-(2,7-diazaspiro[3.5]nonan-2-ylmethyl)-4-(trifluoromethyl)pyrrolidin-1-yl]quinoxaline-5-carbonitrile] as the compound, how does the IC50 read?
Its IC50 is 51 nM.

For `N#Cc1ccc(N2CC(CN3CCOC4(CCNCC4)C3)C3(CC3)C2)c2nccnc12` (stereo not drawn) [Example 67, 8-[7-(1-Oxa-4,9-diazaspiro[5.5]undecan-4-ylmethyl)-5-azaspiro[2.4]heptan-5-yl]quinoxaline-5-carbonitrile], which IC50 is on record?
Its IC50 is 131 nM.

With `CC1(CN)CCCN(C[C@H]2CN(c3ccc(C#N)c4nccnc34)C[C@@H]2C(F)(F)F)C1` (stereo partly drawn) [Example 75, 8-[(3S,4R)-3-[[3-(aminomethyl)-3-methyl-1-piperidyl]methyl]-4-(trifluoromethyl)pyrrolidin-1-yl]quinoxaline-5-carbonitrile] as the compound, how does the IC50 read?
Its IC50 is 26 nM.

How did the IC50 turn out when `N#Cc1ccc(N2C[C@H](CN3CC4(CC(N)C4)C3)[C@@H](C(F)(F)F)C2)c2cccnc12` [Example 53, 5-[(3S,4R)-3-[(6-Amino-2-azaspiro[3.3]heptan-2-yl)methyl]-4-(trifluoromethyl)pyrrolidin-1-yl]quinoline-8-carbonitrile] was run?
Its IC50 is 115 nM.

With `N#Cc1ccc(N2CC(CN3CCC4(CCNCC4)C3)C3(CC3)C2)c2nccnc12` (stereo not drawn) [Example 32, 8-[7-(2,8-Diazaspiro[4.5]decan-2-ylmethyl)-5-azaspiro[2.4]heptan-5-yl]quinoxaline-5-carbonitrile] as the compound, how does the IC50 read?
The IC50 was 402 nM.

For `N#Cc1ccc(N2C[C@H](CNC3CCNCC3)[C@@H](C(F)(F)F)C2)c2nccnc12` [Example 71, 8-[(3S,4R)-3-[(4-piperidylamino)methyl]-4-(trifluoromethyl)pyrrolidin-1-yl]quinoxaline-5-carbonitrile], which IC50 is on record?
The IC50 was 39 nM.

For `N#Cc1ccc(N2C[C@H](CN3CCC(N4CCCCC4)CC3)[C@@H](C(F)(F)F)C2)c2nccnc12` [Example 61, 8-[(3S,4R)-3-[[4-(1-Piperidyl)-1-piperidyl]methyl]-4-(trifluoromethyl)pyrrolidin-1-yl]quinoxaline-5-carbonitrile], which IC50 is on record?
The IC50 was 22 nM.
